# Laboratory results reported in patent US8133847B2, “Pyrido[2,3-B]pyrazine derivatives useful as herbicidal compounds” (Syngenta Limited, priority 2006, dated 2012).
# Experiments:
# Assay in all cases: Example B2 herbicidal action, post-emergence, pots in glasshouse
# Type in all cases: in vivo
# Setaria faberi (SETFA) = details: Application post-emergence, evaluated after 13 days (100=total damage to plant; 0=no damage to plant)
# Description: (§1) Seeds of a variety of test species were sown in standard soil in pots. After 8 days cultivation (post-emergence) under controlled conditions in a glasshouse (at 24/16° C., day/night; 14 hours light; 65% humidity), the plants were sprayed with an aqueous spray solution derived from the formulation of the technical active ingredient in acetone/water (50:50) solution containing 0.5% Tween 20 (polyoxyethylene sorbitan monolaurate, CAS RN 9005-64-5). The test plants were then grown in a glasshouse under controlled conditions in a glasshouse (at 24/16° C., day/night; 14 hours light; 65% humidity) and watered twice daily. After 13 days, the test was evaluated (100=total damage to plant; 0=no damage to plant).
# [1] = tested on: Amaranthus retroflexus (AMARE); details: Application post-emergence, evaluated after 13 days (100=total damage to plant; 0=no damage to plant)
# Description: as §1
# [2] = tested on: Echinochloa crusgalli (ECHCG); details: Application post-emergence, evaluated after 13 days (100=total damage to plant; 0=no damage to plant)
# Description: as §1
# Solanum nigrum (SOLNI) = details: Application post-emergence, evaluated after 13 days
# Description: as §1
# [3] = tested on: Ipomea hederaceae (IPOHE); details: Application post-emergence, evaluated after 13 days (100=total damage to plant; 0=no damage to plant)
# Description: as §1
SMILES,"damage to plant, Setaria faberi (SETFA) (Setaria faberi (SETFA))","damage to plant, Amaranthus retroflexus (AMARE) [1]","damage to plant, Echinochloa crusgalli (ECHCG) [2]","damage to plant, Solanum nigrum (SOLNI) (Solanum nigrum (SOLNI))","damage to plant, Ipomea hederaceae (IPOHE) [3]"
CCn1c(=O)c(-c2cc(C)ccc2C)c(OC(=O)C(C)(C)C)c2nccnc21 [Compound C135],0,8,2,10,0
Cn1c(=O)c(-c2c(Cl)cc(OC(F)(F)F)cc2Cl)c(OC(=O)C(C)(C)C)c2nccnc21 [Compound C138],4,8,2,8,8
CCn1c(=O)c(-c2c(Cl)cc(OC(F)(F)F)cc2Cl)c(OC(=O)C(C)(C)C)c2nccnc21 [Compound C139],10,10,10,10,10
Cn1c(=O)c(-c2ccc(C(F)(F)F)cc2[N+](=O)[O-])c(OC(=O)C(C)(C)C)c2nccnc21 [Compound C140],0,8,3,9,2
CC(C)C(=O)Oc1c(-c2cc(F)ccc2Cl)c(=O)n(C)c2nccnc12 [Compound C142],7,10,8,10,9
Cn1c(=O)c(-c2cc(F)ccc2Cl)c(OC(=O)C(C)(C)C)c2nccnc21 [Compound C143],8,10,7,10,9
CC(C)C(=O)Oc1c(-c2c(F)ccc(Br)c2Cl)c(=O)n(C)c2nccnc12 [Compound C144],2,10,4,10,9
Cn1c(=O)c(-c2c(F)ccc(Br)c2Cl)c(OC(=O)C(C)(C)C)c2nccnc21 [Compound C145],0,7,1,9,6
Cn1c(=O)c(-c2ccccc2Br)c(OC(=O)C(C)(C)C)c2nccnc21 [Compound C146],6,9,5,8,7
CCn1c(=O)c(-c2ccc(C(F)(F)F)cc2Br)c(OC(=O)C(C)(C)C)c2nccnc21 [Compound C147],0,2,0,4,2
CC(C)C(=O)Oc1c(-c2cc(F)c(Cl)cc2Cl)c(=O)n(C)c2nccnc12 [Compound C148],4,9,6,6,7
Cn1c(=O)c(-c2cc(F)c(Cl)cc2Cl)c(OC(=O)C(C)(C)C)c2nccnc21 [Compound C149],3,9,3,7,5
CCn1c(=O)c(-c2cc(F)ccc2Cl)c(OC(=O)C(C)C)c2nccnc21 [Compound C150],6,10,3,10,9
CCn1c(=O)c(-c2cc(F)ccc2Cl)c(OC(=O)C(C)(C)C)c2nccnc21 [Compound C151],0,7,0,6,4
CCn1c(=O)c(-c2cc(F)c(Cl)cc2Cl)c(OC(=O)C(C)C)c2nccnc21 [Compound C152],2,10,4,9,6
CCn1c(=O)c(-c2cc(F)c(Cl)cc2Cl)c(OC(=O)C(C)(C)C)c2nccnc21 [Compound C153],1,9,1,8,5
CCn1c(=O)c(-c2c(F)ccc(Br)c2Cl)c(OC(=O)C(C)C)c2nccnc21 [Compound C154],0,10,3,10,9
CCn1c(=O)c(-c2c(F)ccc(Br)c2Cl)c(OC(=O)C(C)(C)C)c2nccnc21 [Compound C155],0,10,3,10,9
COc1ccc(OC(F)(F)F)cc1-c1c(OC(=O)C(C)C)c2nccnc2n(C)c1=O [Compound C159],7,9,9,8,2
CCn1c(=O)c(-c2cc(OC(F)(F)F)ccc2OC)c(OC(=O)C(C)C)c2nccnc21 [Compound C160],6,10,8,9,7
Cn1c(=O)c(-c2cc(F)c(F)cc2Cl)c(OC(=O)C(C)(C)C)c2nccnc21 [Compound C162],7,9,8,10,7
Cn1c(=O)c(-c2c(F)ccc(Cl)c2Cl)c(OC(=O)C(C)(C)C)c2nccnc21 [Compound C163],0,6,1,9,9
CC(C)C(=O)Oc1c(-c2ccccc2OC(F)F)c(=O)n(C)c2nccnc12 [Compound C164],4,9,3,8,8
CCn1c(=O)c(-c2ccccc2OC(F)F)c(OC(=O)C(C)C)c2nccnc21 [Compound C165],2,9,1,10,7
